IC50 data for six compounds are collected here from ChEMBL document CHEMBL1138423, “TOMOCOMD-CARDD descriptors-based virtual screening of tyrosinase inhibitors: evaluation of different classification model combinations using bond-based linear indices” (Bioorg Med Chem, 2007).

For the experiment, the target named is T1, Tyrosinase (Agaricus bisporus, UniProt O42713).
T1 sequence (O42713 whole entry): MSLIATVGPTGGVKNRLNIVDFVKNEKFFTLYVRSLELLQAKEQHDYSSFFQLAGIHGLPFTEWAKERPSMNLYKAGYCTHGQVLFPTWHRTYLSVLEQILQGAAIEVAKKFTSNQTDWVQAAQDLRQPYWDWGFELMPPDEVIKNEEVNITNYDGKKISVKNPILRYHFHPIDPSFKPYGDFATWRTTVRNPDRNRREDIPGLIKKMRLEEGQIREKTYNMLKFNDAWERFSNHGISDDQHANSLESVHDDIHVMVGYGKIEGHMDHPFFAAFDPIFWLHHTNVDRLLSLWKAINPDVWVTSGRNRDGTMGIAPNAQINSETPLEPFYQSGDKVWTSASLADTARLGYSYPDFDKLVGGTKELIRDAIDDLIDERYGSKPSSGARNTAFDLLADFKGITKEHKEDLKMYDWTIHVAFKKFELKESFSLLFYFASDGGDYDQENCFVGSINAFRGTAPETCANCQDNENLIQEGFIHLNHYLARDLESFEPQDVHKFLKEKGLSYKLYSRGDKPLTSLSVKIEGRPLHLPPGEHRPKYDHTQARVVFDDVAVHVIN
Put plainly: Inhibition of mushroom tyrosinase after 10 mins.
Regarding `C#CC1(O)CC[C@H]2[C@@H]3CCC4=CC(=O)C=C[C@]4(C)[C@H]3CC[C@@]21C` (single isomer, unassigned), the IC50 turned out to be 7.89 µM.

On to `CC[C@]1(O)CC[C@H]2[C@@H]3CCC4=CC(=O)CC[C@]4(C)[C@H]3[C@H](O)C[C@@]21C`, for which it took 1.72 µM to reach half-maximal inhibition (IC50).

`CC[C@]1(O)CC[C@H]2[C@@H]3CCC4=CC(=O)C=C[C@]4(C)[C@H]3CC[C@@]21C`: half-maximal inhibition (IC50) required 3.46 µM.

For the compound `CC[C@]1(O)CC[C@H]2[C@@H]3CCC4=CC(=O)CC[C@]4(C)[C@H]3CC[C@@]21C`, inhibition was half-maximal at 1.53 µM (IC50).

Take `C#CC1(O)CC[C@H]2[C@@H]3CCC4=CC(=O)CC[C@]4(C)[C@H]3[C@H](O)C[C@@]21C` (single isomer, unassigned): the IC50 turned out to be 5.95 µM.

In the case of `C#CC1(O)CC[C@H]2[C@@H]3CCC4=CC(=O)CC[C@]4(C)[C@H]3CC[C@@]21C` (single isomer, unassigned) [ETHISTERONE], half-maximal inhibition (IC50) required 2.61 µM.
